Read-outs that look alike come from different tables or passages of the source. Marks after values point to notes of the source that are not given here.
Legend:
OCT3 (SLC22A3) = molecular target: T1, OCT3 (SLC22A3) (Homo sapiens, UniProt O75751); assay: Cellular uptake into OCT3-overexpressing HEK293 cells vs EV control cells (HPLC-MS/MS); conditions: for uptake ratio OCT3 (transporter-overexpressing cells over EV control cells): mean (±SD, N): 10 μM substrate, 2 min, HEK293
T1 sequence (O75751 1-556): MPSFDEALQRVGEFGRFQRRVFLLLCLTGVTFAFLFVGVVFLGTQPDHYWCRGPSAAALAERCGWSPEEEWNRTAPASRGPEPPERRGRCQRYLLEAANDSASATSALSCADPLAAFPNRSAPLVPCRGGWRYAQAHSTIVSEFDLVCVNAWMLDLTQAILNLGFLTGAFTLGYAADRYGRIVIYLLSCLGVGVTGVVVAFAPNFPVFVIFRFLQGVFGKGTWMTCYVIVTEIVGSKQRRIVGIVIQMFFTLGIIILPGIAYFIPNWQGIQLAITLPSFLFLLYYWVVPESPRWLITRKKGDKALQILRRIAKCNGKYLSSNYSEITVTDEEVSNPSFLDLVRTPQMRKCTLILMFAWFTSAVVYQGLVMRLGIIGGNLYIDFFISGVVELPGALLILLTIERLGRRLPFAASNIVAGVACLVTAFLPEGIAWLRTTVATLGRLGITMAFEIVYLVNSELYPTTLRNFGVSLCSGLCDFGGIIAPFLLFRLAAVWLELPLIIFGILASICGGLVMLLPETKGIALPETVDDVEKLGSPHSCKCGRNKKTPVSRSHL

OCT1 (SLC22A1) = molecular target: T2, OCT1 (SLC22A1) (Homo sapiens, UniProt O15245); assay: Cellular uptake into OCT1-overexpressing HEK293 cells vs EV control cells (HPLC-MS/MS)
T2 sequence (O15245 1-554): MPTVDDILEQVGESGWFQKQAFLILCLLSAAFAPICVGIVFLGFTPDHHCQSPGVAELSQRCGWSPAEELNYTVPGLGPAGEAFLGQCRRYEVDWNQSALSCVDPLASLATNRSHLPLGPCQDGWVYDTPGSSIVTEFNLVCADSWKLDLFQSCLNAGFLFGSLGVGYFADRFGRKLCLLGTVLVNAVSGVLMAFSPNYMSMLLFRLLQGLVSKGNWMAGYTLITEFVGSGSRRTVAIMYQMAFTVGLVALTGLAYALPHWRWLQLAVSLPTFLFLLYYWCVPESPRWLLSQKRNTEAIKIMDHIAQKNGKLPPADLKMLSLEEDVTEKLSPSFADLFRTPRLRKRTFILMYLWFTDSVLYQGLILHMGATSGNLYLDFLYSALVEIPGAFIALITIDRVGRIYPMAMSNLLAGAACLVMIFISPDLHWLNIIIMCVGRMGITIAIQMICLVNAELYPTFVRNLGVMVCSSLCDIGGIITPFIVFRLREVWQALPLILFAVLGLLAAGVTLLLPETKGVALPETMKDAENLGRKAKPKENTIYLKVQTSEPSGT

MATE2-K (SLC47A2) = MATE2-K (SLC47A2) (Homo sapiens, UniProt Q86VL8); assay: Cellular uptake into MATE2-K-overexpressing HEK293 cells vs EV control cells (HPLC-MS/MS); conditions: for uptake ratio MATE2K (transporter-overexpressing cells over EV control cells): mean (±SD, N): 2.5 μM substrate, 1 min, 30 mM NH4Cl preincubation, HEK293
MATE1 (SLC47A1) = molecular target: T3, MATE1 (SLC47A1) (Homo sapiens, UniProt Q96FL8); assay: Cellular uptake into MATE1-overexpressing HEK293 cells vs EV control cells (HPLC-MS/MS); conditions: for uptake ratio MATE1 (transporter-overexpressing cells over EV control cells): mean (±SD, N): 2.5 μM substrate, 1 min, 30 mM NH4Cl preincubation, HEK293
T3 sequence (Q96FL8 1-570): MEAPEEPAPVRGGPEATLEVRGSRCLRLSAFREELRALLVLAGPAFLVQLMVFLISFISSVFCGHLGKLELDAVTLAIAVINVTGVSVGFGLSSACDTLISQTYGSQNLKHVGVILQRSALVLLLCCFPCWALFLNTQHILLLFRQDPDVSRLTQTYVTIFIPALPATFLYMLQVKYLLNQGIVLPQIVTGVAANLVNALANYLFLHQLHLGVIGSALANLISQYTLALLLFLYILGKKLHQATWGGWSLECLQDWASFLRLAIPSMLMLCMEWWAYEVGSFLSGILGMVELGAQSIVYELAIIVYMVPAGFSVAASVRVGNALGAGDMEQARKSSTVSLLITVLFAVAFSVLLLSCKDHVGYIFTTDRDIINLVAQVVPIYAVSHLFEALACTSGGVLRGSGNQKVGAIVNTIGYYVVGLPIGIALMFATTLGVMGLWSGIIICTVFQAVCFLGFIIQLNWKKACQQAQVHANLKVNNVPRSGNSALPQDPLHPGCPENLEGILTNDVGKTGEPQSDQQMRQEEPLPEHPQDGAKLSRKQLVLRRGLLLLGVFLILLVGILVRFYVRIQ

OCT2 (SLC22A2) = molecular target: T4, OCT2 (SLC22A2) (Homo sapiens, UniProt O15244); assay: Cellular uptake into OCT2-overexpressing HEK293 cells vs EV control cells (HPLC-MS/MS); conditions: for uptake ratio OCT2 (transporter-overexpressing cells over EV control cells): mean (±SD, N): 10 μM substrate, 2 min, HEK293
T4 sequence (O15244 1-555): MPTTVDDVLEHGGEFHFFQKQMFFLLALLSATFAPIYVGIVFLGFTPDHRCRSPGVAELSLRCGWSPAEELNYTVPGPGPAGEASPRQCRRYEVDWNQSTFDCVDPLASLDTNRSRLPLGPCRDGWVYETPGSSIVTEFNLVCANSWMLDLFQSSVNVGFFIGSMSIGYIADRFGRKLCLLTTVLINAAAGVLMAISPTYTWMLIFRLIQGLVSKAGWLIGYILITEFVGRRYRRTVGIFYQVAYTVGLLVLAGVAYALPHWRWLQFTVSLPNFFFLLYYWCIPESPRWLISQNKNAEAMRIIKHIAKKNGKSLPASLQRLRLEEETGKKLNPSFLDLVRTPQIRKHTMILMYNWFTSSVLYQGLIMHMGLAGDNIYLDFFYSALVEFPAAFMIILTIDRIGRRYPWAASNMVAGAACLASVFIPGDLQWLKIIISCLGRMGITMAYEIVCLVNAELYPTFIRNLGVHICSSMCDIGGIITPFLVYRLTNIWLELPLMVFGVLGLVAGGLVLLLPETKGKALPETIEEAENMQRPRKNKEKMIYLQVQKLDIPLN

Sequence of MATE2-K (SLC47A2) (Q86VL8 1-566 isoform Q86VL8-3): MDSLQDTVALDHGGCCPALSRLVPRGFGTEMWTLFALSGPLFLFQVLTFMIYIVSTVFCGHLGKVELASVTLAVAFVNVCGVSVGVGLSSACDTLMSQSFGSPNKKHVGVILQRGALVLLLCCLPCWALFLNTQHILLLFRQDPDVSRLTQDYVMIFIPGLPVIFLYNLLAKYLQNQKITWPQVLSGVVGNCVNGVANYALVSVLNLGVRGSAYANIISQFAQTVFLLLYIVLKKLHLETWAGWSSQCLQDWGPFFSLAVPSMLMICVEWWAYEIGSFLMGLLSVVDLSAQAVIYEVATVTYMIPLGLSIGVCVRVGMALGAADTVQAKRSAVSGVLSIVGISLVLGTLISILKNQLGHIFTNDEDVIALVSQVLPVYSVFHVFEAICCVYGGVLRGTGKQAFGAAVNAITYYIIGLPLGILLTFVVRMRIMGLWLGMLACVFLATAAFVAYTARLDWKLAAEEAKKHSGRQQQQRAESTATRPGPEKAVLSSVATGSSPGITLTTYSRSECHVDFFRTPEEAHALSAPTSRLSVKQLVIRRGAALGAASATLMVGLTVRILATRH

Row | Structure (SMILES) | uptake ratio MATE1 (transporter-overexpressing cells over EV control cells): mean (±SD, N) (MATE1 (SLC47A1)) | uptake ratio MATE2K (transporter-overexpressing cells over EV control cells): mean (±SD, N) (MATE2-K (SLC47A2)) | uptake ratio OCT3 (transporter-overexpressing cells over EV control cells): mean (±SD, N) (OCT3 (SLC22A3)) | uptake ratio OCT2 (transporter-overexpressing cells over EV control cells): mean (±SD, N) (OCT2 (SLC22A2)) | further results
1 | CN(CCCN)CCCN [3,3′-diamino-N-methyldipropylamin] | – | – | – | – | substrate activity at OCT3 (in words) (OCT3 (SLC22A3)): did not show any substrate activity; substrate activity at OCT1 (in words) (OCT1 (SLC22A1)): did not show any substrate activity; substrate activity at MATE2-K (in words) (MATE2-K (SLC47A2)): did not show any substrate activity
2 | OCCNCCO [diethanolamine] | – | – | – | – | substrate activity at OCT3 (in words) (OCT3 (SLC22A3); uptake ratio ≥2 = notable transport): did not show any substrate activity; substrate activity at OCT1 (in words) (OCT1 (SLC22A1)): did not show any substrate activity; substrate activity at MATE1 (in words) (MATE1 (SLC47A1)): did not show any substrate activity; substrate activity at MATE2-K (in words) (MATE2-K (SLC47A2)): did not show any substrate activity; substrate activity at OCT2 (in words) (OCT2 (SLC22A2)): did not show any substrate activity
3 | C[C@H](N)CCO [(S)-3-aminobutan-1-ol] | – | – | – | – | stereoselectivity OCT3 (uptake ratio of the more strongly transported enantiomer divided by that of the other) (OCT3 (SLC22A3); label = favoured enantiomer): 1.2-fold for (S)
4 | CC(C)(C)N [tert-butylamine] | 1.3 (0.3, 3) | 1.0 (0.2, 3) | 1.3 (0.5, 3) | 3.8 (1.6, 4) ^a | –
5 | CC(C)N [isopropylamine] | 1.4 (0.2, 3) | – | 1.0 (0.2, 3) | 5.3 (1.7, 3) ^a | uptake ratio OCT1 (transporter-overexpressing cells over EV control cells): mean (±SD, N) (OCT1 (SLC22A1); 10 μM substrate, 2 min, HEK293): 1.3 (0.2, 3)
6 | CCN(CC)CCO [2-(diethylamino)ethanol] | 1 (0.13, 3) | 1.4 (0.2, 3) | 1.2 (0.1, 3) | 4.0 (1.5, 3) | v max (±SEM) (OCT2 (SLC22A2); OCT2, net uptake, Michaelis–Menten): 794 (±109) pmol/mg protein/min

Continued, in another order:

Row | uptake ratio MATE1 (transporter-overexpressing cells over EV control cells): mean (±SD, N) (MATE1 (SLC47A1)) | uptake ratio MATE2K (transporter-overexpressing cells over EV control cells): mean (±SD, N) (MATE2-K (SLC47A2)) | Structure (SMILES) | uptake ratio OCT3 (transporter-overexpressing cells over EV control cells): mean (±SD, N) (OCT3 (SLC22A3)) | uptake ratio OCT2 (transporter-overexpressing cells over EV control cells): mean (±SD, N) (OCT2 (SLC22A2)) | further results
7 | 1.0 (0.4, 3) | 0.8 (0.1, 3) | NCCCCNCCCN [spermidine-(butyl-d8)] | – | – | –
8 | 1.0 (0.1, 4) | 1.2 (0.3, 4) | CCCCN [butylamine] | 1.5 (1.0, 5) | 6.4 (2.0, 5) ^b | –
